Assay [1] has as its target T1, human recombinant GABAAR containing α5β3γ2 subunits (benzodiazepine site) (Homo sapiens, UniProt P18507+P31644).
T1 construct: expressed in transfected cells; host or cells: mouse L(tk−) cells, dexamethasone-inducible vector pMSGneo
In words: In vitro radioligand binding assay (α5-GABAAR Ki). Conditions: inhibition of [3H]Ro15-1788 binding, membranes of L(tk−) cells expressing human α5β3γ2; read-out: α5-GABAAR Ki. In outline: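 Displacement of 4 nM [^3H]flumazenil from the benzodiazepine site, read by filtration and scintillation, gave IC50, converted to Ki (Cheng-Prusoff, saturation-derived Kd). Receptor: human α5β3γ2 membranes from L(tk^−) cells, 50 μg protein/well; 1 h, 4° C; TP003 1 μM defined nonspecific binding.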

Assay [2] deals with mouse hippocampal brain slices (LTP suppressed by etomidate). In words: Electrophysiology in hippocampal slices - long term potentiation assay.
For another assay, the target named is T2, rat brain α5-GABAARs (Rattus norvegicus, UniProt P18508+P19969).
T2 construct: from tissue; host or cells: forebrain of male Sprague-Dawley rats, dosed in vivo
Briefly: In vivo brain receptor occupancy assay ([3H]L-655,708 binding). The procedure: The occupancy of rat brain benzodiazepine binding sites by compound was measured by its ability to inhibit the in vivo binding of [^3H] L-655,708. This radioligand is selective for the benzodiazepine site of GABAA receptors containing an α5 subunit (Quirk et al. 2001, Journal of Neurochemistry, 77 445-51) and has been used previously to measure in vivo α5-GABAAR occupancy (Atack et al. 2005, Neuropharmacology, 49 220-229).
[…] To block all benzodiazepine binding sites and therefore define the level of non-specific binding of [^3H] […]
Animals were then killed by stunning and decapitation, the whole brain was rapidly removed, the cerebellum and brainstem were discarded, leaving the forebrain which was weighed and homogenised in 10 volumes of ice-cold homogenising buffer (10 mM potassium phosphate buffer containing 100 mM KCl, pH 7.4). Aliquots of homogenate (500 μL) were then added directly to scintillation vials (total radioactivity) or filtered and washed with 5 ml Tris-HCL buffer (50 mM, pH 7.4) over Whatman glass microfiber GF/B filters. Washed filters were then placed in scintillation vials (three filters per vial) and scintillation fluid was added to all vials, which were then counted on a Perkin-Elmer Tricarb 2900TR scintillation counter (membrane-bound radioactivity). […]

SMILES strings stand for the structures.

T2 sequence (P19969 32-464 limits assumed): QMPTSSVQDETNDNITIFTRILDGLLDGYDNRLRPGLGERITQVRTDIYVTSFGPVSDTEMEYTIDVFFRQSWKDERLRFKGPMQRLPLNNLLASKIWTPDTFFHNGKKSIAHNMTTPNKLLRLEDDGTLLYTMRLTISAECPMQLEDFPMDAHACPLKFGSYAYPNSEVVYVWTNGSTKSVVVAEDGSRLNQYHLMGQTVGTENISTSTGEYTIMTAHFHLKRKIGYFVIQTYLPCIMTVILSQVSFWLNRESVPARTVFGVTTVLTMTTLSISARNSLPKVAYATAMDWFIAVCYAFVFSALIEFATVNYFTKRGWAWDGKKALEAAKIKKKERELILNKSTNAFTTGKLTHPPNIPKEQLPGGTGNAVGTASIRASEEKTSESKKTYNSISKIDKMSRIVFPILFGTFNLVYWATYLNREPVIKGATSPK
T2 sequence (P18508 39-466): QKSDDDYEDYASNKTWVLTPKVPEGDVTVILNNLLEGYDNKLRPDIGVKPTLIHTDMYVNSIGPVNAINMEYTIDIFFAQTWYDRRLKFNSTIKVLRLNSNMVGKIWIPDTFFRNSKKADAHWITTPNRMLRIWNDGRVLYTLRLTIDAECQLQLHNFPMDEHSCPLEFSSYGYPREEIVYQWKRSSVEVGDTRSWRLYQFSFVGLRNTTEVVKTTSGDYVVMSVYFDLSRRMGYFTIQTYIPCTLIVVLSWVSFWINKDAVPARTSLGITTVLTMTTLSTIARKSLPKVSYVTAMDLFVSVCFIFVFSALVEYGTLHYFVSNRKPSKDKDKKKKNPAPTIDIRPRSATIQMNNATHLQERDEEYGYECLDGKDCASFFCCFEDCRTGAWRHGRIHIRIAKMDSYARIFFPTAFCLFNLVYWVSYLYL
T1 sequence (P31644 32-462): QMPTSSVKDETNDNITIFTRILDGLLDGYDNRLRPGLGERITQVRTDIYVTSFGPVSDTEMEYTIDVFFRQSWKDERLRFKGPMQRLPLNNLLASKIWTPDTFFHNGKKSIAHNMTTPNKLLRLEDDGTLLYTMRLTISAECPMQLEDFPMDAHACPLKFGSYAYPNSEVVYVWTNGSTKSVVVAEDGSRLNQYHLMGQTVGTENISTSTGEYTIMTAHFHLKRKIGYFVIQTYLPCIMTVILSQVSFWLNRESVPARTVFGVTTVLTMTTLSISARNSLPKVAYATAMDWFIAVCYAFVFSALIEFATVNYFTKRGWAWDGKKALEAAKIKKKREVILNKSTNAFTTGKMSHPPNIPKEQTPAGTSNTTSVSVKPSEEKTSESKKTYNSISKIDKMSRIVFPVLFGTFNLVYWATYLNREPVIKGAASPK
T1 sequence (P28472 26-473 partner): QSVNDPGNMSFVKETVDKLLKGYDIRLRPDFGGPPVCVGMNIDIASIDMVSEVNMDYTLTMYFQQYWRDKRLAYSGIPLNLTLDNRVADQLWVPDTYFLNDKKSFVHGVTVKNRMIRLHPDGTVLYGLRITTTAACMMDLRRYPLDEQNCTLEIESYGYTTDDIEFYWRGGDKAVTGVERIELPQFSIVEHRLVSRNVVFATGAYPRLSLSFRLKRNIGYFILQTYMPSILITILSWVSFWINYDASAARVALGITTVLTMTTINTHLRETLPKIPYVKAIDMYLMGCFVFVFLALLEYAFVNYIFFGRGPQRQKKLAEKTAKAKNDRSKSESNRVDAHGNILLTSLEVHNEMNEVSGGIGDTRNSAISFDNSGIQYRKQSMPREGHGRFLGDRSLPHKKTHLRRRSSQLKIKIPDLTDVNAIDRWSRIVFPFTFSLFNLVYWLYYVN
T1 sequence (P18507 40-475): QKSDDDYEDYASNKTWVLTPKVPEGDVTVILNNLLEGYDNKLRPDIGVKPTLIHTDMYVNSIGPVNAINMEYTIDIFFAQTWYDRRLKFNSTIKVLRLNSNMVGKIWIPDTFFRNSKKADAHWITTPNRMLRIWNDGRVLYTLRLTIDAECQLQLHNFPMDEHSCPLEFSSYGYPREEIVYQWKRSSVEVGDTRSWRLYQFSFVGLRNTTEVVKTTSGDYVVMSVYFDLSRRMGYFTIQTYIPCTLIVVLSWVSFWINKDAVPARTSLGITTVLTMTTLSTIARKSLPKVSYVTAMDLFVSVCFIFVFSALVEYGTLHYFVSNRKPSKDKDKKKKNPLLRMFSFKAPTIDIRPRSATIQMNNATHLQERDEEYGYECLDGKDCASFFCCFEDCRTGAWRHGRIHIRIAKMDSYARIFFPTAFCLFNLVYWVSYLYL

Take `COc1nc(-n2ccnc2)ccc1NC(=O)c1c(-c2ccccc2)noc1C` [Example 1, N-(6-Imidazol-1-yl-2-methoxy-3-pyridyl)-5-methyl-3-phenyl-isoxazole-4-carboxamide]: the Ki in assay [1] turned out to be 2.9 nM. Moreover, the “magnitude of LTP (fEPSP slope as % of control fEPSPs prior to 4-TBS vs time)” value in assay [2] (1 μM co-added with etomidate 3 μM, n=6, FIG. 2A) is recorded as “rescued”. Besides, in assay [2] (co-incubation with etomidate, one-way ANOVA, post-hoc Tukey, p<0.05, FIG. 2B), the “fEPSP slope at 50-60 min post-delivery of the 4-TBS” value is reported as “significantly increased fEPSP slope”. Also, at rat brain α5-GABAARs (3 to 30 mg/kg p.o., FIG. 3), the “occupancy of rat brain α5-GABAARs, dependence on dose” value is “dose-dependent”. For the same compound, the receptor occupancy at 10 mg/kg at rat brain α5-GABAARs (po, 10 mg/kg p.o., inhibition of in vivo [3H]L655,708 binding, FIG. 3, read-out: occupancy of rat brain α5 GABAA receptors) came to 77%.

One may read the Ki as the dissociation constant of the complex between target and ligand, obtained from inhibition or displacement.

Values taken from US20240425491A1, “HETEROARYL COMPOUNDS USEFUL IN THE TREATMENT OF COGNITIVE DISORDERS” (University College Cardiff Consultants Limited, priority 2021, published 2024).
